In patent publication US20240199552A1, “AMIDE COMPOUND AND USE THEREOF” (Metisa Biotechnology Co., Ltd, priority 2021, published 2024):

Columns and labels:
Type in all cases: in vivo
Mythimna separata = assay: Insecticidal activity against Mythimna separata, Airbrush spray on maize leaf pieces; details: 72 h, 0.05 mg/L, 3 days after the administration, 3rd-instar larvae, read-out: mortality rate against Mythimna separata
Method: (§1) After the compound to be determined was dissolved in a mixed solvent of acetone/methanol (1:1), it was diluted with water containing 0.1% (wt) Tween-80 to a desired concentration.
(§2) Mythimna separata, Diamondback moth, Chilo suppressalis, Spodoptera exigua, Myzus persicae, and Franklinella occidentalis were used as targets, and the activity was tested by an Airbrush spray method.
Determination method: maize leaves were cut into 2 cm leaf pieces, and the front and back of each leaf piece were sprayed under an Airbrush spray treatment pressure of 10 psi (approximate to 0.7 kg/cm^2) and with a spray volume of 0.5 mL. After drying in the shade, 10 3rd-instar larvae were inoculated for each treatment, and each treatment was repeated for 3 times. After the treatment, the leaf pieces were put into an observation chamber at 25° C. and with a relative humidity of 60% to 70%, and the number of living larvae was investigated 3 days after the administration of the compounds, and the mortality rates were calculated.

Diamondback moth = assay: Insecticidal activity against Diamondback moth, Airbrush spray on cabbage leaf discs; details: Plutella xylostella, foliar, 72 h, 3 days after the administration; for mortality at 1.25 µg/mL: 1.25 mg/L, 3rd-instar larvae, read-out: mortality rate against Diamondback moth; for mortality at 10 µg/mL: 10 mg/L, Diamondback moth, read-out: Mortality rate (%, 3 days after the administration) 10 mg/L
Method: as §1, §2
Determination method: cabbage leaves were formed into leaf discs having a diameter of 2 cm using a puncher, and the front and back of each leaf disc were sprayed under an Airbrush spray treatment pressure of 10 psi (approximate to 0.7 kg/cm^2) and with a spray volume of 0.5 mL. After drying in the shade, 10 3rd-instar larvae were inoculated for each treatment, and each treatment was repeated for 3 times. After the treatment, the leaf discs were placed into an observation chamber at 25° C. and with a relative humidity of 60% to 70%, and the number of living larvae was investigated 3 days after the administration of the compounds, and the mortality rates were calculated.

Chilo suppressalis = assay: Insecticidal activity against Chilo suppressalis, sprayed rice stems; details: 72 h, 0.625 mg/L, 3 days after the administration, 3rd-instar larvae, read-out: mortality rate against Chilo suppressalis
Method: as §1, §2
Determination method: 1) Preparation of rice seedlings: rice was cultured in a plastic small cup with a diameter of 4.5 cm and a height of 4 cm in a constant temperature room (the temperature was 26-28° C., the relative humidity was about 60-80%, and the illumination was 16hL:8hD), when the rice grown to a 4-5 leaf stage, robust and uniformly grown rice seedlings were selected for pharmaceutical treatment, and 3 replicates were set for each treatment. 2) Preparation of test insects: 3rd-instar larvae of Chilo suppressalis were continuously reared indoors. 3) Rice stems were sprayed and insects were introduced. A spray method was used to treat whole rice seedlings with uniform spray, and each treatment was 15 mL. Blank controls were treated firstly, and then the above operation was repeated in an order of experimental concentrations from low to high. After the spray treatment of the rice seedlings, they were placed in the shade to air-dry drug liquid, about 5 cm of the stem from a basal part of the stem was cut and fed to the test insects. A glass culture dish with a diameter of 90 mm was prepared, filter paper was placed on the bottom of the dish, then water was added to moisturize. About 5 rice stems were placed in each dish, 10 larvae were introduced, and the culture dish was closed with non-woven fabric and placed in the constant-temperature room for culture. 3 days after the administration, the number of residual live insects was investigated.

Spodoptera exigua = assay: Insecticidal activity against Spodoptera exigua, leaf disc dipping feeding method; details: foliar, 72 h, 0.625 mg/L, 3 days after the administration, read-out: mortality rate against Spodoptera exigua
Method: After the compound to be determined was dissolved in a mixed solvent of acetone/methanol (1:1), it was diluted with water containing 0.1% (wt) Tween-80 to a desired concentration. […]
Determination method: the activity was tested by using a leaf disc dipping feeding method. Leaf discs were dipped in a drug solution for 10 s, and placed in a culture dish after being air-dried, there were 4 discs in each dish, and a filter paper was placed in the culture dish for moisture retention. 10 test insects of Spodoptera exigua were introduced to each dish, with 3 replicates.
They were placed in a light incubator for culture at a temperature of 25° C. and an illumination of 14hL:10hD. On the 1st, 2nd, and 3rd day after the administration, the number of dead Spodoptera exigua was investigated and the mortality rate was calculated.

Myzus persicae = assay: Insecticidal activity against Myzus persicae, Airbrush spray on cabbage leaves; details: 50 mg/L, after 48 h, read-out: mortality rate against Myzus persicae
Method: as §1, §2
Determination method: a culture dish with a diameter of 6 cm was taken, the bottom of the dish was covered by a layer of filter paper, and an appropriate amount of tap water was added to moisturize the paper. Cabbage leaves with an appropriate size (the diameter was about 3 cm) and 15-30 aphids grown were cut from cabbage plants used to culture Myzus persicae, winged aphids and aphids on the front of the leave were removed, and it was placed in the culture dish while the back of the leave was upward. The pressure of airbrush spray treatment was 10 psi (about 0.7 kg/cm^2), the liquid spray volume was 0.5 mL, and there were 3 replicates for each treatment. After the treatment, the leave was put into an observation room for culture at 25° C. and a relative humidity of 60-70%. After 48 h, the number of live insects was investigated and the mortality rate was calculated.

cat flea = assay: Insecticidal experiment on cat flea, thin film in culture dish; details: Ctenocephalides felis, 72 h, read-out: mortality rate, cat flea
Method: 4 mg of the compound to be determined was dissolved in 40 mL of acetone to obtain an acetone solution with a concentration of 100 mg/L. 400 μL of the drug solution was applied on the bottom and sides of a culture dish with an inner diameter of 5.3 cm, then after acetone was evaporated, a thin film of the compound of the present invention was made on the inner wall of the culture dish. The inner wall of the culture dish used was 40 cm^2, and the treatment dosage was 1 μg/cm^2. 10 adult cat fleas (mixed male and female) were put into the dish, and it was stored in a constant-temperature room at 25° C. after being covered. The number of dead insects after 72 h was checked and the mortality rate was calculated. The experiment was repeated for 3 times.

Row | Structure (SMILES) | mortality at 0.05 µg/mL (Mythimna separata) [%] | mortality at 1.25 µg/mL (Diamondback moth) [%] | mortality at 10 µg/mL (Diamondback moth) [%] | mortality at 0.625 µg/mL (Chilo suppressalis) [%] | mortality at 0.625 µg/mL (Spodoptera exigua) [%] | mortality at 50 µg/mL (Myzus persicae) [%] | mortality at 1 µg/cm2 (cat flea) [%]
1 | C=CCN(C(=O)c1ccc(C#N)cc1)c1cccc(C(=O)Nc2c(I)cc(C(F)(C(F)(F)F)C(F)(F)F)cc2C(F)(F)F)c1F [Compound 12] | > 90 | > 90 | 100 | > 90 | > 90 | > 90 | > 90
2 | C#CCN(C(=O)c1ccc(C#N)nc1)c1cccc(C(=O)Nc2c(I)cc(C(F)(C(F)(F)F)C(F)(F)F)cc2C(F)(F)F)c1F [Compound 52] | > 90 | > 90 | 100 | > 90 | > 90 | > 90 | > 90
3 | C=CCN(C(=O)c1ccc(C#N)nc1)c1cccc(C(=O)Nc2c(I)cc(C(F)(C(F)(F)F)C(F)(F)F)cc2C(F)(F)F)c1F [Compound 24] | > 90 | > 90 | 100 | > 90 | > 90 | > 90 | > 90
4 | C#CCN(C(=O)c1ccc(C(F)(F)F)nc1)c1cccc(C(=O)Nc2c(I)cc(C(F)(C(F)(F)F)C(F)(F)F)cc2C(F)(F)F)c1F [Compound 56] | > 90 | > 90 | 100 | > 90 | > 90 | > 90 | > 90
5 | C#CCN(C(=O)c1ccc(C#N)cc1)c1cccc(C(=O)Nc2c(I)cc(C(F)(C(F)(F)F)C(F)(F)F)cc2C(F)(F)F)c1F [Compound 40] | > 90 | > 90 | 100 | > 90 | > 90 | > 90 | > 90
6 | C=CCN(C(=O)c1ccc(C(F)(F)F)nc1)c1cccc(C(=O)Nc2c(Br)cc(C(F)(C(F)(F)F)C(F)(F)F)cc2C(F)(F)F)c1F [Compound 27] | > 90 | > 90 | 100 | > 90 | > 90 | > 90 | > 90
7 | C=CCN(C(=O)c1ccc(C#N)cc1)c1cccc(C(=O)Nc2c(Br)cc(C(F)(C(F)(F)F)C(F)(F)F)cc2C(F)(F)F)c1F [Compound 11] | > 90 | > 90 | 100 | > 90 | > 90 | > 90 | > 90
8 | C#CCN(C(=O)c1ccc(C#N)cc1)c1cccc(C(=O)Nc2c(Br)cc(C(F)(C(F)(F)F)C(F)(F)F)cc2C(F)(F)F)c1F [Compound 39] | > 90 | > 90 | 100 | > 90 | > 90 | > 90 | > 90
9 | C=CCN(C(=O)c1ccc(C(F)(F)F)nc1)c1cccc(C(=O)Nc2c(I)cc(C(F)(C(F)(F)F)C(F)(F)F)cc2C(F)(F)F)c1F [Compound 28] | > 90 | > 90 | 100 | > 90 | > 90 | > 90 | > 90
10 | C#CCN(C(=O)c1ccc(C(F)(F)F)nc1)c1cccc(C(=O)Nc2c(Br)cc(C(F)(C(F)(F)F)C(F)(F)F)cc2C(F)(F)F)c1F [Compound 55] | > 90 | > 90 | 100 | > 90 | > 90 | > 90 | > 90
11 | C#CCN(C(=O)c1ccc(C#N)nc1)c1cccc(C(=O)Nc2c(Br)cc(C(F)(C(F)(F)F)C(F)(F)F)cc2C(F)(F)F)c1F [Compound 51] | > 90 | > 90 | 100 | > 90 | > 90 | > 90 | > 90
12 | C#CCN(C(=O)c1ccccc1)c1cccc(C(=O)Nc2c(I)cc(C(F)(C(F)(F)F)C(F)(F)F)cc2C(F)(F)F)c1F [Compound 32] | > 90 | > 90 | 100 | > 90 | > 90 | > 90 | > 90
13 | C=CCN(C(=O)c1ccccc1)c1cccc(C(=O)Nc2c(I)cc(C(F)(C(F)(F)F)C(F)(F)F)cc2C(F)(F)F)c1F [Compound 4] | > 90 | > 90 | 100 | > 90 | > 90 | > 90 | > 90
14 | C=CCN(C(=O)c1ccc(C#N)nc1)c1cccc(C(=O)Nc2c(Br)cc(C(F)(C(F)(F)F)C(F)(F)F)cc2C(F)(F)F)c1F [Compound 23] | > 90 | > 90 | 100 | > 90 | > 90 | > 90 | > 90
